Test results taken from patent US11999727B2 (Tango Therapeutics, Inc., priority 2020, dated 2024).

Columns and labels:
[1] = tested on: HAP1 MTAP-deleted cell line; experiment: SDMA in-cell western assay, HAP1 MTAP-deleted; format: cell-based; conditions: for IC50: Homo sapiens, HAP1, SDMA in-cell western, HAP1 MTAP-deleted, read-out: HAP 1 MTAP deleted IC50; for MTAP intact/deleted ratio: IC50 ratio HAP1 MTAP-intact / HAP1 MTAP-deleted, SDMA in-cell western
Procedure, shortened: (§1)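 Isogenic HAP1 pair: the MTAP-intact line expresses endogenous MTAP, and the deleted line is MTAP-null. Symmetric dimethylarginine was detected by in-cell western and IC50 values derived for each line.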

[2] = target: T1, PRMT5 (Homo sapiens, UniProt O14744); experiment: PRMT5 biochemical IC50 assay with MTA as cofactor; conditions: PRMT5, MTA as cofactor; read-out: MTA IC50
T1 construct: purchased Viva (custom protein)

[3] = target: T1, PRMT5; experiment: PRMT5 biochemical IC50 assay with no cofactor; conditions: PRMT5, no cofactor; read-out: No Cofactor/rel IC50
From the text: Table 1 indicates IC50 values (μM) against PRMT5 for exemplary compounds in the presence of SAM as cofactor, with no cofactor, and with MTA as cofactor, respectively (columns 4-6). […] Ki values can be calculated from the IC50 values as described in the Examples section. As detailed in the Examples section, for the assay performed in the presence of SAM, IC50=Ki×1.5 (Ki=IC50/1.5).

[4] = tested on: HAP1 MTAP-intact cell line; experiment: SDMA in-cell western assay, HAP1 MTAP-intact; format: cell-based; conditions: Homo sapiens, HAP1, SDMA in-cell western, HAP1 MTAP-intact; read-out: MTAP HAP1 intact IC50
Procedure, shortened: as §1

[5] = target: T1, PRMT5; experiment: PRMT5 biochemical IC50 assay with SAM as cofactor; conditions: PRMT5, SAM as cofactor; read-out: SAM IC50
[6] = tested on: HAP1 MTAP-deleted cell line; experiment: Viability assay, MTAP-deleted cell line; format: cell-based; conditions: Homo sapiens, HAP1, viability IC50, MTAP-deleted cell line; read-out: HAP1 MTAP deleted viability
From the text: Table 1 additionally indicates IC50 values in a viability assay for the MTAP-deleted cell line (column 10), indicating the effect of treatment with compound on cell survival.

T1 sequence (O14744 whole entry): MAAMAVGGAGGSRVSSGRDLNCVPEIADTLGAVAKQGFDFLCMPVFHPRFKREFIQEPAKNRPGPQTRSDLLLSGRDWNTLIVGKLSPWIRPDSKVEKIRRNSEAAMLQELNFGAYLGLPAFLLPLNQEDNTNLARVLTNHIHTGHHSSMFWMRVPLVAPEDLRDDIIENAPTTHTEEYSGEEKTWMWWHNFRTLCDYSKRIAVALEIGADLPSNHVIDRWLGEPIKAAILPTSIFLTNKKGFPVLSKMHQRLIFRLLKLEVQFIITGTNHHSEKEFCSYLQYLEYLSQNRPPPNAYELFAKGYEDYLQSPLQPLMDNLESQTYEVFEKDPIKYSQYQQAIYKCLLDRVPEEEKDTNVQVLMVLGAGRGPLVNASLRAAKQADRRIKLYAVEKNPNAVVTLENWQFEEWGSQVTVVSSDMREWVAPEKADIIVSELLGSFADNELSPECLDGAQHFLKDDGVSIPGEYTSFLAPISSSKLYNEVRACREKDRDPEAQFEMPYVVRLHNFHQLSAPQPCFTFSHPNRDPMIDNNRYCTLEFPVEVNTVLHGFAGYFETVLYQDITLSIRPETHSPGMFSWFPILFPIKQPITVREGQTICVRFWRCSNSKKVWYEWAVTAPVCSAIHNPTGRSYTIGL
T1 sequence (Q9BQA1 whole entry partner): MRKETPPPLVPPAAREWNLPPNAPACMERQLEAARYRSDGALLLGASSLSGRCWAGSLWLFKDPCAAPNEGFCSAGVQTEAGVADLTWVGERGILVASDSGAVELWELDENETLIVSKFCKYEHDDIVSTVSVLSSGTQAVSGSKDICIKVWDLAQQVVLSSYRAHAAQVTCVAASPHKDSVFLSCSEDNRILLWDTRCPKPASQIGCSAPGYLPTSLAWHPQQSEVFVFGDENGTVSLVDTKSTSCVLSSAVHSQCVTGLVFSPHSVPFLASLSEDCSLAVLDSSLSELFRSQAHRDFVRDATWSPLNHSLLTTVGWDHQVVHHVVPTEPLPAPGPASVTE

Row | Structure (SMILES) | IC50 [1] [nM] | IC50 [2] [nM] | IC50 [3] [nM] | IC50 [4] [nM] | IC50 [5] [nM] | MTAP intact/deleted ratio [1] | IC50 [6] [nM]
1 | CC(=O)N[C@H]1C[C@H]([C@@H]2CC[C@H](C)CN2C(=O)C(=O)Nc2cnc(N)c(C)c2)C1 (single isomer, unassigned) [Compound 562] | > 1000 | > 500 | > 500 | > 1000 | > 500 | C (an IC50 ratio of less than 3 fold) | > 10000
2 | CC(=O)N[C@H]1C[C@H]([C@H]2CC[C@H](C)CN2C(=O)C(=O)Nc2cnc(N)c(C)c2)C1 (single isomer, unassigned) [Compound 563] | > 1000 | > 500 | > 500 | > 1000 | > 500 | C (an IC50 ratio of less than 3 fold) | > 10000
3 | CC(=O)N[C@H]1C[C@H]([C@H]2CC[C@@H](C)CN2C(=O)C(=O)Nc2cnc(N)c(C)c2)C1 (single isomer, unassigned) [Compound 564] | > 1000 | 50 to 500 | > 500 | > 1000 | 50 to 500 | B (an IC50 ratio greater than or equal to 3 fold but lower than 10 fold) | > 10000
4 | CC[C@@H]1CC[C@H](c2ccccc2)N(C(=O)C(=O)Nc2cncc(C(N)=O)c2)C1 (single isomer, unassigned) [Compound 565] | 100 to 1000 | 50 to 500 | > 500 | > 1000 | 50 to 500 | A (an IC50 ratio greater than or equal to 10 fold) | > 10000
5 | Cc1cc(NC(=O)C(=O)N2C[C@@H](C)CC[C@@H]2[C@H]2CCC[C@@H](O)C2)cnc1N (single isomer, unassigned) [Compound 566] | 100 to 1000 | 50 to 500 | 50 to 500 | > 1000 | > 500 | A (an IC50 ratio greater than or equal to 10 fold) | 1000 to 10000
6 | Cc1cc(NC(=O)C(=O)N2C[C@H](C)CC[C@H]2[C@@H]2CCC[C@H](O)C2)cnc1N (single isomer, unassigned) [Compound 567] | > 1000 | > 500 | > 500 | > 1000 | > 500 | C (an IC50 ratio of less than 3 fold) | > 10000
7 | Cc1cc(NC(=O)C(=O)N2C[C@@H](C)CC[C@@H]2[C@@H]2CCC[C@@H](O)C2)cnc1N (single isomer, unassigned) [Compound 568] | > 1000 | > 500 | > 500 | > 1000 | > 500 | C (an IC50 ratio of less than 3 fold) | > 10000
8 | C[C@H]1CC[C@H](c2ccc(Cl)cc2)N(C(=O)C(=O)Nc2cncc(C(N)=O)c2)C1 (single isomer, unassigned) [Compound 569] | > 1000 | > 500 | > 500 | > 1000 | > 500 | C (an IC50 ratio of less than 3 fold) | > 10000
9 | C[C@@H]1CC[C@@H](c2ccc(Cl)cc2)N(C(=O)C(=O)Nc2cncc(C(N)=O)c2)C1 (single isomer, unassigned) [Compound 570] | < 100 | < 50 | 50 to 500 | > 1000 | 50 to 500 | A (an IC50 ratio greater than or equal to 10 fold) | 1000 to 10000
10 | C[C@@H]1CC[C@@H](c2cc3cn[nH]c3cc2F)N(C(=O)C(=O)Nc2cncc(C(N)=O)c2)C1 (single isomer, unassigned) [Compound 571] | > 1000 | > 500 | > 500 | > 1000 | > 500 | C (an IC50 ratio of less than 3 fold) | > 10000
11 | Cc1cc([C@@H]2CC[C@@H](C)CN2C(=O)C(=O)Nc2cnc(N)c(C)c2)ccc1O (single isomer, unassigned) [Compound 572] | < 100 | 50 to 500 | 50 to 500 | < 100 | < 50 | A (an IC50 ratio greater than or equal to 10 fold) | < 1000
12 | Cc1cc(NC(=O)C(=O)N2C[C@@H](C)CC[C@@H]2c2cnc3[nH]ncc3c2)cnc1N (single isomer, unassigned) [Compound 573] | > 1000 | > 500 | > 500 | > 1000 | > 500 | C (an IC50 ratio of less than 3 fold) | > 10000

Now from value to compound, other results behind:

Row | IC50 [1] [nM] | IC50 [2] [nM] | IC50 [3] [nM] | IC50 [4] [nM] | IC50 [5] [nM] | Structure (SMILES) | MTAP intact/deleted ratio [1] | IC50 [6] [nM]
13 | > 1000 | 50 to 500 | 50 to 500 | > 1000 | 50 to 500 | C[C@H]1CC[C@H](c2cnc3[nH]ncc3c2)N(C(=O)C(=O)Nc2cncc(C(N)=O)c2)C1 (single isomer, unassigned) [Compound 574] | B (an IC50 ratio greater than or equal to 3 fold but lower than 10 fold) | > 10000
14 | > 1000 | > 500 | > 500 | > 1000 | > 500 | Cc1cc(NC(=O)C(=O)N2C[C@@H](C)CC[C@@H]2c2ccc(C(F)(F)F)cc2)cnc1N (single isomer, unassigned) [Compound 575] | C (an IC50 ratio of less than 3 fold) | > 10000
15 | > 1000 | > 500 | > 500 | > 1000 | > 500 | CC[C@@H]1CC[C@@H](c2ccccc2)N(C(=O)C(=O)Nc2cncc(C(N)=O)c2)C1 (single isomer, unassigned) [Compound 576] | C (an IC50 ratio of less than 3 fold) | > 10000
16 | > 1000 | > 500 | > 500 | > 1000 | > 500 | C[C@@H]1CC[C@@H](c2ccccn2)N(C(=O)C(=O)Nc2cncc(C(N)=O)c2)C1 (single isomer, unassigned) [Compound 578] | C (an IC50 ratio of less than 3 fold) | > 10000
17 | > 1000 | > 500 | > 500 | > 1000 | > 500 | CCc1cc(NC(=O)C(=O)N2C[C@H](C)CC[C@H]2c2ccc3[nH]ncc3c2)cnc1N (single isomer, unassigned) [Compound 579] | B (an IC50 ratio greater than or equal to 3 fold but lower than 10 fold) | > 10000
18 | < 100 | 50 to 500 | 50 to 500 | 100 to 1000 | < 50 | Cc1cc(NC(=O)C(=O)N2C[C@H](C)CC[C@H]2c2ccc3c(c2)CNC3=O)cnc1N (single isomer, unassigned) [Compound 581] | A (an IC50 ratio greater than or equal to 10 fold) | 1000 to 10000
19 | < 100 | < 50 | < 50 | 100 to 1000 | < 50 | C[C@H]1CC[C@H](c2ccc3sccc3c2)N(C(=O)C(=O)Nc2cncc(C(N)=O)c2)C1 (single isomer, unassigned) [Compound 585] | A (an IC50 ratio greater than or equal to 10 fold) | < 1000
20 | > 1000 | > 500 | > 500 | > 1000 | > 500 | C[C@@H]1CC[C@@H](c2ccc3sccc3c2)N(C(=O)C(=O)Nc2cncc(C(N)=O)c2)C1 (single isomer, unassigned) [Compound 586] | B (an IC50 ratio greater than or equal to 3 fold but lower than 10 fold) | > 10000
21 | < 100 | < 50 | < 50 | 100 to 1000 | < 50 | CCc1cc(NC(=O)C(=O)N2C[C@@H](C)CC[C@@H]2c2ccc3[nH]ncc3c2)cnc1N (single isomer, unassigned) [Compound 589] | A (an IC50 ratio greater than or equal to 10 fold) | < 1000
22 | < 100 | < 50 | 50 to 500 | > 1000 | < 50 | C[C@H]1CC[C@H](c2ccccn2)N(C(=O)C(=O)Nc2cncc(C(N)=O)c2)C1 (single isomer, unassigned) [Compound 590] | A (an IC50 ratio greater than or equal to 10 fold) | 1000 to 10000
23 | > 1000 | > 500 | > 500 | > 1000 | > 500 | Cc1cc(NC(=O)C(=O)N2C[C@@H](C)CC[C@@H]2c2ccc3c(c2)CNC3=O)cnc1N (single isomer, unassigned) [Compound 591] | C (an IC50 ratio of less than 3 fold) | > 10000
